Test results: patent US20250171400A1, “AZA-HETEROCYCLYL CARBOXAMIDE AND RELATED COMPOUNDS AND THEIR USE IN TREATING MEDICAL CONDITIONS” (X-BIOTIX THERAPEUTICS, INC., priority 2021, published 2025)
Converted amounts (≈) assume the structure as drawn. Like-named read-outs stand apart in the source and are kept apart here.

Experiments:
[1] = tested on: P. aeruginosa PAO1 isogenic mutant deficient in MexA mediated efflux; experiment: broth microdilution minimum inhibition concentration assay; assay type: cell-based; details: Pseudomonas aeruginosa, PAO1, read-out: P. aeruginosa KO MIC
In short: (§1)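 CLSI broth microdilution with serial doubling dilutions in cation-adjusted Mueller-Hinton broth; inoculum adjusted to 1×10^6 CFU/mL, incubated 16-20 h at 37° C in air. Knockouts are isogenic clean deletions of acrA (E. coli BW25113) or MexA (PAO1); QC by piperacillin on ATCC reference strains.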

[2] = tested on: E. coli BW25113 isogenic mutant deficient in acrA mediated efflux; experiment: as above; assay type: cell-based; details: Escherichia coli, BW25113, read-out: E. coli KO MIC
In short: as §1

[3] = tested on: wild-type P. aeruginosa PAO1; experiment: as above; assay type: cell-based; details: Pseudomonas aeruginosa
In short: as §1

[4] = tested on: wild-type E. coli BW25113; experiment: as above; assay type: cell-based; details: Escherichia coli; wild-type E. coli BW25113, 37° C. 16-20 h; read-out: E. coli WT MIC
In short: as §1

E. coli LpxC = E. coli LpxC (Escherichia coli (strain K12), UniProt P0A725); experiment: in vitro substrate deacetylation assay for inhibition of LpxC (ADDA analysis); assay type: biochemical; details: 5 nM E. coli LpxC, 2.5 μM substrate, 1 hour at room temperature
Sequence of E. coli LpxC (P0A725 whole entry): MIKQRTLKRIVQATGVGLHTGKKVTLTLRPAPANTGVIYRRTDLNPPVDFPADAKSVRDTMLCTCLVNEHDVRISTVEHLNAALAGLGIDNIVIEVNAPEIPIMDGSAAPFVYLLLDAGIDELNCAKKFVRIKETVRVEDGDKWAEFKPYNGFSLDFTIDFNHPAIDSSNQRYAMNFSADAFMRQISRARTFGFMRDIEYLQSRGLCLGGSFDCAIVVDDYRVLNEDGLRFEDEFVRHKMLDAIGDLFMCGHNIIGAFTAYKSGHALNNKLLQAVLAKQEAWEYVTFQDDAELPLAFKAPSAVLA
In short: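 E. coli LpxC (5 nM) was preincubated with compound for 10 min at room temperature in phosphate/sucrose/BSA buffer, pH 7.2. UDP-3-O-(R-3-hydroxymyristoyl)-GlcNAc (final 2.5 μM) was then added for 1 h. Substrate and product were measured by ADDA LC-MS/MS, with 1 μM CHIR-090 defining 100% inhibition and IC50 from a four-parameter fit.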

P. aeruginosa LpxC = P. aeruginosa LpxC (Pseudomonas aeruginosa (strain ATCC 15692 / DSM 22644 / CIP 104116 / JCM 14847 / LMG 12228 / 1C / PRS 101 / PAO1), UniProt P47205); experiment: biochemical; assay type: biochemical; details: 5 nM P. aeruginosa LpxC, 2.5 μM substrate, 1 hour at room temperature
In short: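 In vitro deacetylation of substrate by P. aeruginosa LpxC in 384-well format. Substrate and product were captured on Hypercarb and quantified by negative-mode electrospray triple-quadrupole MS. IC50 was derived from the fraction of substrate converted at each compound concentration, calculated from peak areas.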

[5] = wild-type P. aeruginosa PAO1, 37° C. 16-20 h, read-out: P. aeruginosa WT MIC
[6] = PAO1, read-out: P. aeruginosa WT MIC

SMILES: CS(=O)(=O)N1C[C@H](NC(=O)[C@@H]2C[C@H](F)CN2)C[C@@H]1C(=O)NCc1ccc(C#Cc2ccc(CN3CCOCC3)cc2)cc1 [Example 9AI, (2R,4R)-4-((2S,4S)-4-Fluoropyrrolidine-2-carboxamido)-1-(methylsulfonyl)-N-(4-((4-(morpholinomethyl)phenyl)ethynyl)benzyl)pyrrolidine-2-carboxamide]
- MIC [1]: < 20 µM
- MIC [2]: 20 to 100 µM (≈ 12.2 to 61.2 µg/mL)
- MIC [3, 5]: > 100 µM
- MIC [4]: > 100 µM
- IC50 (E. coli LpxC): < 500 nM
- IC50 (P. aeruginosa LpxC): < 50 nM

SMILES: Cc1cc(C#Cc2ccc(CN3CCOCC3)cc2)ccc1C(=O)NC[C@H]1C[C@@H](NC(=O)[C@@H]2C[C@H](F)CN2)CN1C(=O)C1CC1 [Example 7, (2S,4S)—N-((3R,5R)-1-(Cyclopropanecarbonyl)-5-((2-methyl-4-((4-(morpholinomethyl)phenyl)ethynyl)benzamido)methyl)pyrrolidin-3-yl)-4-fluoropyrrolidine-2-carboxamide]
- MIC [1]: < 20 µM
- MIC [2]: < 20 µM
- MIC [3, 6]: > 100 µM
- MIC [4]: < 20 µM
- IC50 (E. coli LpxC): < 500 nM
- IC50 (P. aeruginosa LpxC): 50 to 100 nM

SMILES: N[C@H]1C[C@H](C(=O)N2C[C@H](NC(=O)[C@@H]3C[C@H](F)CN3)C[C@@H]2C(=O)NCc2ccc(C#CC#CC3CC3)cc2)C1 [Example 9AF]
- MIC [1]: > 100 µM
- MIC [2]: > 100 µM
- MIC [3, 6]: > 100 µM
- MIC [4]: > 100 µM
- IC50 (E. coli LpxC): 500 to 2500 nM
- IC50 (P. aeruginosa LpxC): 50 to 100 nM

SMILES: CC(C)C(=O)N1C[C@H](NC(=O)[C@@H]2C[C@H](F)CN2)C[C@@H]1CNC(=O)c1ccc(C#Cc2ccc(CN3CCOCC3)cc2)cc1 [Example 5, (2S,4S)-4-Fluoro-N-((3R,5R)-1-isobutyryl-5-((4-((4-(morpholinomethyl)phenyl)ethynyl)benzamido)methyl)pyrrolidin-3-yl)pyrrolidine-2-carboxamide]
- MIC [1]: < 20 µM
- MIC [2]: < 20 µM
- MIC [3, 5]: > 100 µM
- MIC [4]: < 20 µM
- IC50 (E. coli LpxC): < 500 nM
- IC50 (P. aeruginosa LpxC): < 50 nM

SMILES: NCCC(=O)N1C[C@H](NC(=O)[C@@H]2C[C@H](F)CN2)C[C@@H]1C(=O)NCc1ccc(C#CC#CC2CC2)cc1 [Example 9M]
- MIC [1]: > 100 µM
- MIC [2]: > 100 µM
- MIC [3, 6]: > 100 µM
- MIC [4]: > 100 µM
- IC50 (E. coli LpxC): 2500 to 10000 nM
- IC50 (P. aeruginosa LpxC): 50 to 100 nM

SMILES: CC(C)C(=O)N1C[C@H](NC(=O)[C@@H]2CCCN2)C[C@@H]1C(=O)NCc1ccc(C#CC#CC2CC2)cc1 [Example 9L]
- MIC [1]: 20 to 100 µM (≈ 9.49 to 47.5 µg/mL)
- MIC [2]: 20 to 100 µM (≈ 9.49 to 47.5 µg/mL)
- MIC [3, 6]: > 100 µM
- MIC [4]: > 100 µM
- IC50 (E. coli LpxC): 500 to 2500 nM
- IC50 (P. aeruginosa LpxC): 100 to 1000 nM
